According to paper PMC9100525, “CsCuAOs and CsAMADH1 Are Required for Putrescine-Derived γ-Aminobutyric Acid Accumulation in Tea” (Foods, 2022):

Key:
Type in all cases: biochemical
CsCuAO1 = biological target: T1, CsCuAO1 (Camellia sinensis, UniProt A0A4S4D8A3); assay: peroxidase-coupled 4-aminoantipyrine/N,N-dimethylaniline assay at […] nm; Lineweaver-Burk; settings: 0.1 M potassium phosphate pH 6.5; O2 co-substrate; unit "Mm" [sic] (substrate range 0.1-100 mM)
T1 construct: gene TEA_026770; recombinant GST fusion, pGEX-4T-1, purified; peroxisomal; copper/TPQ enzyme, CuAOs stated as homodimer in general; gene from Tea Plant Information Archive, locus id not given
T1 sequence (A0A4S4D8A3 1-662): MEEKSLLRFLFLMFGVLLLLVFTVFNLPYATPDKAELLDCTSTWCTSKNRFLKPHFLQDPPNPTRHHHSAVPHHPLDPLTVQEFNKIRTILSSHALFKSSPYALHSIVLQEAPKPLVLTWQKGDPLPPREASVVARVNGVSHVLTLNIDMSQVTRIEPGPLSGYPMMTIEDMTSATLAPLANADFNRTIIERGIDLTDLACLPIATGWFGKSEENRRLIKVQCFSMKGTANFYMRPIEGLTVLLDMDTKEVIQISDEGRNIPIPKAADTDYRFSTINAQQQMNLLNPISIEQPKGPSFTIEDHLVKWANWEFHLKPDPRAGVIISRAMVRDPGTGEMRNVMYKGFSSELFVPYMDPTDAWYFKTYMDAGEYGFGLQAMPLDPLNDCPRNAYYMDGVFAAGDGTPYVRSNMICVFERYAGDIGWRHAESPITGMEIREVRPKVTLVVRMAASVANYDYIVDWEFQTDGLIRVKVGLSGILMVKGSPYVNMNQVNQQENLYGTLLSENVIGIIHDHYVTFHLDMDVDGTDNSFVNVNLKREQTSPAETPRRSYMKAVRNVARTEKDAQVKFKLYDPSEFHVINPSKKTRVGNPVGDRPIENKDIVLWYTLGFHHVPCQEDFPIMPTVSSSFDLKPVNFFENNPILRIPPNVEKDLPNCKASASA

CsCuAO3 = biological target: T2, CsCuAO3 (Camellia sinensis, UniProt A0A4S4DQ49); assay: as above; settings: 0.1 M potassium phosphate pH 6.5; O2 co-substrate; unit "Mm" [sic] (substrate range 0.1-100 mM)
T2 construct: gene TEA_013658; recombinant GST fusion, pGEX-4T-1, purified; peroxisomal; copper/TPQ enzyme, CuAOs stated as homodimer in general; gene from Tea Plant Information Archive, locus id not given
T2 sequence (A0A4S4DQ49 1-679): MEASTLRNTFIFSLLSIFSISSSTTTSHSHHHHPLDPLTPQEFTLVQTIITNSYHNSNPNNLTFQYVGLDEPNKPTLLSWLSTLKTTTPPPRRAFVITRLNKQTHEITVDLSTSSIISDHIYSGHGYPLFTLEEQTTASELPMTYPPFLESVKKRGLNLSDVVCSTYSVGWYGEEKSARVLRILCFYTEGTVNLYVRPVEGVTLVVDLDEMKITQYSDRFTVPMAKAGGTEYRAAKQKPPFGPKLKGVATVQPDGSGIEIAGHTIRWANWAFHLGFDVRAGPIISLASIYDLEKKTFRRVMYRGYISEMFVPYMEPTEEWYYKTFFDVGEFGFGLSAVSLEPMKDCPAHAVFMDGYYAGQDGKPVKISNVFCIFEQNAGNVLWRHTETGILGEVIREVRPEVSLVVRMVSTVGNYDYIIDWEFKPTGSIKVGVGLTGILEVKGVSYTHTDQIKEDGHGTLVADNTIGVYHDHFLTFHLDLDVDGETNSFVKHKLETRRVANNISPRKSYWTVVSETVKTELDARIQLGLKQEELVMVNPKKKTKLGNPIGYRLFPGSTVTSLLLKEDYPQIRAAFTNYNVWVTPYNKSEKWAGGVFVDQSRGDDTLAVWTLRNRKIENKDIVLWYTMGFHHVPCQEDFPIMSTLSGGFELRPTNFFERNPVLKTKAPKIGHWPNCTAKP

CsAMADH1 = biological target: T3, CsAMADH1 (Camellia sinensis, UniProt I7F760); assay: NADH formation at […] nm; Lineweaver-Burk; settings: 0.1 M potassium phosphate pH 8.0; 0.001 M NAD+ as co-substrate; unit "Mm" [sic] (substrate range 0.1-100 mM)
T3 construct: recombinant GST fusion, pGEX-4T-1, purified; plastid-localized; gene from Tea Plant Information Archive, locus id not given
T3 sequence (I7F760 1-505): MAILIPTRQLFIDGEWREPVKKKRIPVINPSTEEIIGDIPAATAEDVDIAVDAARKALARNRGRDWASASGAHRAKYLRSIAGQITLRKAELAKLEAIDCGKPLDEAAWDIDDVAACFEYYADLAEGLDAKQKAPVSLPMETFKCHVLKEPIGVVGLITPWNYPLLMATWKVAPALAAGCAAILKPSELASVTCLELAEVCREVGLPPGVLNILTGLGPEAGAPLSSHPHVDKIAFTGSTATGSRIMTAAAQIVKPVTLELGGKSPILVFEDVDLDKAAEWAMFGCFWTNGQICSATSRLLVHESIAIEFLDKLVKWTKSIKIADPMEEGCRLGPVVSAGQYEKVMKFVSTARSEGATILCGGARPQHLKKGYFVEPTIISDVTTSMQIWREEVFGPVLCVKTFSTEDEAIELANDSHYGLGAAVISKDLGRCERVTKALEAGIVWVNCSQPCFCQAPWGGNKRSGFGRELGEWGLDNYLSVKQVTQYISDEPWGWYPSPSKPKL

Compound | Km (CsCuAO1) [Mm] | Km (CsCuAO3) [Mm] | Km (CsAMADH1) [Mm]
NCCCCN [putrescine] | 21.9 | 15.8 | –
NCCCC=O [4-ABAL] | – | – | 25.7
